Among the test systems are HCC 2998; EKVX; UACC-257; HCT-15; XF498; DMS-273; SNB-19; NCI-H460; OVCAR-3; SNB-75; HOP-92; A498; SF-268; LOX IMVI; Malme-3M; HOP-18; KM-20L2; COLO 205; NCI-H522; ACHN.
What all share (assay): NCI tumour cell line growth inhibition, 48 h

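Compound exposure: 48 hours, 5 concentrations, 96-well plates. GI50: concentration for 50% inhibition of growth.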 Activity calls are given as the source filed them. Cut-off read from the data, not from the text of the source: active = GI50 up to about 1.1 µM and inactive = higher. A value given as a limit tells only on which side of the number the result lay.

With `NC(S)=Nc1cc(Cl)ccc1Cl`, the GI50 in the test with HCC 2998 is > 100 µM (inactive); in the test on EKVX, > 100 µM (inactive); in the test with UACC-257, > 100 µM (inactive); in the test on HCT-15, above 100 µM; in the test with XF498, 94.6 µM (inactive); in the test with DMS-273, > 100 µM (inactive). Also, the GI50 with SNB-19 is > 100 µM (inactive); with NCI-H460 it was > 100 µM (inactive); with OVCAR-3 it was > 100 µM (inactive); in the test on SNB-75 it was 55.7 µM (inactive); in the test with HOP-92, 85.1 µM (inactive); in the test on A498 it was > 100 µM (inactive). The GI50 in the test on SF-268, in the test with LOX IMVI, with Malme-3M, with HOP-18, in the test on KM-20L2 and in the test on COLO 205 was > 100 µM (inactive) each time. The GI50 in the test on NCI-H522 and with ACHN was > 100 µM (inactive) throughout.

As to `Cc1ccc(N(O)C(C)(C)C)cc1`, the GI50 was > 100 µM (inactive) in the test on HCC 2998; > 100 µM (inactive) in the test with EKVX; > 100 µM (inactive) with UACC-257; above 100 µM with HCT-15; > 100 µM (inactive) in the test on XF498; > 100 µM (inactive) with DMS-273. In addition, the GI50 in the test on SNB-19, with NCI-H460, in the test on OVCAR-3, with SNB-75, in the test on HOP-92 and in the test with A498 was > 100 µM (inactive) throughout. Besides, the GI50 in the test on SF-268, in the test with LOX IMVI, in the test with Malme-3M, in the test with HOP-18, in the test with KM-20L2 and in the test on COLO 205 was > 100 µM (inactive) throughout. In addition, in the test with NCI-H522, the GI50 was > 100 µM (inactive).

With `O=[N+]([O-])c1cc2ncc(-c3ccccc3)c(O)c2cc1/C(Cl)=C/c1ccccc1`, the GI50 in the test with HCC 2998 is 8.26 µM (inactive); in the test on EKVX, 5.57 µM (inactive); with UACC-257 it was 24.3 µM (inactive); in the test on HCT-15, 11.1 µM; in the test on XF498, 8.24 µM (inactive); in the test on DMS-273, 5.61 µM (inactive). Besides, the GI50 in the test with SNB-19 is 16.3 µM (inactive); with NCI-H460, 9.16 µM (inactive); with OVCAR-3, 2.59 µM (inactive); with SNB-75, 9.1 µM (inactive); in the test on HOP-92 it was 3.47 µM (inactive); in the test on A498, 16.1 µM (inactive). Further, the GI50 with SF-268 was 3.62 µM (inactive); with LOX IMVI, 6.93 µM (inactive); in the test with HOP-18, 2.11 µM (inactive); in the test with KM-20L2, 17.7 µM (inactive); in the test with COLO 205, 7.82 µM (inactive); in the test on NCI-H522, 3.48 µM (inactive).

`CC(=O)/C=C/c1c[nH]c(=O)[nH]c1=O`: the GI50 in the test on HCC 2998 was 236 µM (inactive); with EKVX it was 239 µM (inactive); in the test on UACC-257, 265 µM (inactive); in the test on HCT-15 it was 210 µM; in the test with XF498 it was 38.4 µM (inactive); with DMS-273, 89.1 µM (inactive). The GI50 with SNB-19 is 295 µM (inactive); in the test on NCI-H460 it was 186 µM (inactive); with OVCAR-3, 180 µM (inactive); with SNB-75 it was 217 µM (inactive); with HOP-92 it was 8.13 µM (inactive); in the test with A498, 214 µM (inactive). Moreover, the GI50 in the test on SF-268 is 168 µM (inactive); in the test on LOX IMVI, 97.5 µM (inactive); with Malme-3M, 243 µM (inactive); with HOP-18, 155 µM (inactive); in the test with KM-20L2, 213 µM (inactive); in the test on COLO 205, 154 µM (inactive). Also, the GI50 with NCI-H522 was 94.4 µM (inactive).

With `CC(C)(C)[Si](OC1CC(n2cnc3c(N)ncnc32)OC1CO)(c1ccccc1)c1ccccc1` (stereo not drawn), the GI50 with HCC 2998 is 67.5 µM (inactive); in the test with EKVX, 18.4 µM (inactive); in the test with UACC-257 it was 66.5 µM (inactive); in the test on HCT-15, above 10 µM; in the test with XF498 it was 10.4 µM (inactive); in the test on DMS-273 it was 18.7 µM (inactive). Also, the GI50 with SNB-19 is 20.2 µM (inactive); in the test on NCI-H460, 16.3 µM (inactive); in the test on OVCAR-3, 16.6 µM (inactive); with HOP-92, 20.2 µM (inactive); with A498, 17.9 µM (inactive); with SF-268, 16.1 µM (inactive). Moreover, the GI50 with LOX IMVI is 17.7 µM (inactive); with Malme-3M, 19 µM (inactive); in the test on HOP-18 it was 67.6 µM (inactive); in the test on KM-20L2, 15.4 µM (inactive); in the test with COLO 205, 30.3 µM (inactive); in the test on NCI-H522, 16 µM (inactive). In the test with ACHN, the GI50 is 13.6 µM (inactive).

Regarding `NC(=O)NN=C(CS)CS`, the GI50 in the test on HCC 2998 is 31 µM (inactive); in the test with EKVX, 18.8 µM (inactive); in the test with UACC-257 it was 19.5 µM (inactive); with HCT-15 it was 22.8 µM; with XF498, < 0.01 µM (active); in the test with DMS-273, 20 µM (inactive). Also, the GI50 in the test with SNB-19 was 23.1 µM (inactive); in the test on NCI-H460 it was 23.7 µM (inactive); in the test with OVCAR-3, 23.3 µM (inactive); in the test with SNB-75 it was 33 µM (inactive); in the test on HOP-92 it was 21.9 µM (inactive); in the test with A498, 14.9 µM (inactive). The GI50 was 34.8 µM (inactive) in the test on SF-268; 15.7 µM (inactive) in the test on LOX IMVI; 19.7 µM (inactive) in the test on Malme-3M; 26.7 µM (inactive) in the test with HOP-18; 19.8 µM (inactive) in the test with KM-20L2; 23.1 µM (inactive) in the test with COLO 205. The GI50 in the test on NCI-H522 was 22.6 µM (inactive).

`O=C(NCCCCCCNC(=O)n1cc(F)c(=O)[nH]c1=O)NCCCOCCOCCCNC(=O)C(O)C(O)C(O)C(O)CO` (stereo not drawn): the GI50 was 0.152 µM (active) in the test with HCC 2998; > 2.5 µM (inactive) in the test on EKVX; > 2.5 µM (inactive) with UACC-257; 2.43 µM with HCT-15; > 2.5 µM (inactive) in the test on XF498; > 2.5 µM (inactive) with DMS-273. Further, the GI50 with SNB-19 is > 2.5 µM (inactive); in the test with NCI-H460, 1.51 µM (inactive); with OVCAR-3, > 2.5 µM (inactive); in the test on SNB-75 it was > 2.5 µM (inactive); in the test on HOP-92, > 2.5 µM (inactive); in the test with A498, > 2.5 µM (inactive). The GI50 with SF-268 is > 2.5 µM (inactive); in the test on LOX IMVI it was > 2.16 µM (inactive); in the test on Malme-3M, > 1.53 µM (inactive); with HOP-18, > 2.5 µM (inactive); in the test on KM-20L2, > 2.5 µM (inactive); in the test with COLO 205 it was > 2.5 µM (inactive). In addition, the GI50 in the test on NCI-H522 is > 2.5 µM (inactive).

In the case of `Cn1c(=O)[nH]c2c(c1=O)C(=O)CN2`, the GI50 is > 100 µM (inactive) in the test on HCC 2998; > 100 µM (inactive) in the test with EKVX; > 100 µM (inactive) in the test with UACC-257; above 100 µM in the test on HCT-15; > 100 µM (inactive) in the test with XF498; > 100 µM (inactive) with DMS-273. In addition, the GI50 was > 100 µM (inactive) with SNB-19; > 100 µM (inactive) in the test with NCI-H460; > 100 µM (inactive) in the test on SNB-75; < 0.01 µM (active) in the test with HOP-92; > 100 µM (inactive) in the test on SF-268; > 100 µM (inactive) with LOX IMVI. Moreover, the GI50 is > 100 µM (inactive) with Malme-3M; > 100 µM (inactive) in the test on HOP-18; > 100 µM (inactive) with KM-20L2; > 100 µM (inactive) with COLO 205; > 10 µM (inactive) in the test with ACHN.

On to `CC(=O)NC(Cc1ccsc1)C(=O)O` (stereo not drawn), for which the GI50 with HCC 2998 is > 100 µM (inactive); with EKVX, > 100 µM (inactive); with UACC-257 it was > 100 µM (inactive); in the test with HCT-15 it was above 100 µM; with XF498, > 35.4 µM (inactive); with DMS-273, > 100 µM (inactive). For the same compound, the GI50 in the test on SNB-19, with NCI-H460, in the test on OVCAR-3, in the test on SNB-75, with HOP-92 and in the test on A498 was > 100 µM (inactive) throughout. For the same compound, the GI50 in the test on SF-268, with LOX IMVI, in the test on Malme-3M, with HOP-18, with KM-20L2 and in the test with COLO 205 was > 100 µM (inactive) throughout. The GI50 in the test on NCI-H522 was > 100 µM (inactive).

Turning to `COc1cc(/N=N\c2cccc(S(=O)(=O)O)c2)c(C)cc1/N=N\c1ccc(/C=C/c2ccc(/N=[N+](/[O-])c3ccc(/C=C/c4ccc(/N=N\c5cc(C)c(/N=N/c6cccc(S(=O)(=O)O)c6)cc5OC)cc4)c(S(=O)(=O)O)c3)cc2S(=O)(=O)O)cc1`, the GI50 in the test with HCC 2998 is > 100 µM (inactive); in the test on EKVX, > 100 µM (inactive); in the test with UACC-257, > 100 µM (inactive); with HCT-15, above 100 µM; with XF498 it was > 100 µM (inactive); in the test with DMS-273, > 100 µM (inactive). Moreover, the GI50 in the test on SNB-19 was > 100 µM (inactive); in the test with NCI-H460, > 100 µM (inactive); in the test on OVCAR-3, > 100 µM (inactive); with SNB-75, > 100 µM (inactive); in the test with HOP-92, > 77.3 µM (inactive); in the test with A498 it was > 100 µM (inactive). The GI50 in the test on SF-268, in the test on LOX IMVI, in the test on Malme-3M, in the test on HOP-18, with KM-20L2 and in the test on COLO 205 was > 100 µM (inactive) each time. Moreover, the GI50 in the test on NCI-H522 was > 93.5 µM (inactive).

The record behind these values is ChEMBL document CHEMBL1201862, “PubChem BioAssay data set” (2004).
